Assay [1] deals with colon cancer cells HCT116. The experiment in a line: Inhibitory activity against proliferation of cancer cells, SRB (Sulforhodamine B) analysis. Format: cell-based. The note with it: Homo sapiens, read-out: Inhibitory conc. against cancer cell growth (EC50 μM) HCT116. The procedure:
Cancer cells were inoculated into a 96-well microplate at a concentration of 1×10^3˜3×10^3 cells/well and incubated under the condition of 37° C., 5% CO2 for 24 hrs. After the incubation was completed, 0.2, 1, 5, 25, or 100 μM of each of the compounds of Examples was added to the plate, and then the reactant was incubated for 48 hrs. After the substrate was stained with SRB, the anti-cancer activity was determined by comparing the amount of protein in the cells treated with the compound of Examples with that of protein in untreated cells.
Specifically, after the incubation was completed, the culture medium was removed from each well, and the cells were washed 3 times with PBS (pH 7.4). Then, a solution of 50% trichloroacetic acid (TCA) was added to each well in an amount of 50 μl/well at 4° C. for 1 hr to fix them. Then, the microplate was washed 5 times with distilled water and dried in air. […]
50 μl of a staining solution prepared by dissolving 0.4% SRB in 1% acetic acid was added to the wells, and the microplate was kept at room temperature for 1 hr. The well plate was then washed 5 times with 1% acetic acid to remove unbound SRB and dried in air. The stained cells were treated with 150 μl/well of 10 mM Tris-HCl solution (pH 10.5) to elute SRB from the cells, and the absorbance of the cells treated with the compounds of examples at 540 nm was measured, based on the absorbance of an untreated cell. The EC50 value representing inhibition of the cancer cell growth by the extent of 50% was calculated from the measured absorbance, and the results are shown in Table 6.

Assay [2] concerns HDAC. The experiment in a line: Inhibitory activity against HDAC (BIOMOL Quantizyme Assay system, Fluor de Lys substrate). Format: biochemical. Particulars: HeLa nuclear extract as source of HDAC enzymes, enzyme reaction 1 hr; for pIC50: read-out: IC50 (HDAC inhibitory concentration); for IC50: Table 5, formula (3) series, read-out: Inhibitory conc. (IC50, μM/ml). The procedure:
HDAC activity was analyzed using BIOMOL Quantizyme™ Assay system which comprised two steps of 1) enzyme reaction between HDAC and a substrate and 2) determination of the level of HDAC inhibitory activity.
(§1) 0.5 μl of HeLa nuclear organic layer (10 μM) (a source of HDAC enzymes) was then added thereto to a final concentration of 100 nM. The enzyme reaction was carried out for 1 hr.
Subsequently, in step 2), 2 μM tricostatin A was added to 50 μl of Flour de Lys™ developer, followed by allowing the mixture to react at room temperature for 15 minutes. The light excited at 355 nm and emitted at 460 nm from the fluorophore was measured with a fluorometric plate reader. The intensity of the fluorescence increases as the enzyme activity is higher. The HDAC inhibitory activity of each of the test compounds was determined and compared with that of the control.
0.5 μl of HeLa nuclear organic layer (10 μM) (a source of HDAC enzymes) was then added thereto to a final concentration of 100 nM, The enzyme reaction was carried out for 1 hr.
as §1, §1

The mark [3] stands for this setting: HCT-116, Table 4, 48 hrs incubation with compound.
[4] abbreviates: HCT-116, Table 6, 48 hrs incubation with compound.

pIC50: −log10 of the molar value. Like-named read-outs stand apart in the source and are kept apart here. Some results are limits rather than exact numbers.

Consider `CN1CCCC1CCNC(=O)/C(=C/c1ccc(C(=O)NO)cc1)COc1cccc2ccccc12` (centres unmarked) [Example 1-22, (E)-4-(3-(2-(1-Methylpyrrolidin-2-yl)ethylamino)-2-((naphthalen-1-yloxy)methyl)-3-oxo-1-propenyl)-N-hydroxy-benzamide], for which, in assay [1] (HCT-116, Table 2, 48 hrs incubation with compound), the 50% effective concentration (EC50) (in general, the midpoint of the concentration-response curve) came out at 0.8 µM. In addition, the pIC50 in assay [2] (Table 1, formula (1) series) was 7.89.
`COc1ccc(CNC(=O)/C(=C/CCCCC(=O)NO)COc2cccc3ccccc23)cc1` [Example 2-6, (E)-N8-Hydroxy-N1-(4-methoxybenzyl)-2-((naphthalen-1-yloxy)methyl)-2-octenediamide]: the EC50 in assay [1] (setting [3]) was 0.8 µM. Also, the pIC50 in assay [2] (Table 3, formula (2) series) was 8.30.
Consider `O=C(CCCCC=C(COc1cccc2ccccc12)C(=O)NCC1CCCO1)NO` (centres unmarked) [Example 2-8, (E)-N8-Hydroxy-2-((naphthalen-1-yloxy)methyl)-N1-(tetrahydrofuran-2-yl)methyl)-2-octenediamide], for which, in assay [1] (setting [3]), the EC50 stood at 0.7 µM. In addition, in assay [2] (Table 3, formula (2) series), the pIC50 was 7.85.
Consider `O=C(CCCC/C=C(\COc1cccc2ccccc12)C(=O)NCc1ccco1)NO` [Example 2-11, (E)-N1-(Furan-2-ylmethyl)-N8-hydroxy-2-((naphthalen-1-yloxy)methyl)-2-octenediamide], for which the EC50 in assay [1] (setting [3]) stood at 0.6 µM. Also, the pIC50 in assay [2] (Table 3, formula (2) series) is 8.22.
As for `CN(C)c1ccc(CNC(=O)/C(=C/CCCCC(=O)NO)COc2cccc3ccccc23)cc1` [Example 2-12, (E)-N1-(4-(Dimethylamino)benzyl)-N8-hydroxy-2-((naphthalen-1-yloxy)methyl)-2-octenediamide], the concentration giving a half-maximal response (EC50) in assay [1] (setting [3]) was determined as 0.5 µM. The pIC50 in assay [2] (Table 3, formula (2) series) was 8.22.
On to `COCCNC(=O)/C(=C/CCCCC(=O)NO)COc1cccc2ccccc12` [Example 2-13, (E)-N8-Hydroxy-N1-(2-methoxyethyl)-2-((naphthalen-1-yloxy)methyl)-2-octenediamide], for which the EC50 in assay [1] (setting [3]) worked out at 0.6 µM. In addition, the pIC50 in assay [2] (Table 3, formula (2) series) is 7.62.
On the same counts, the results for `O=C(CCCC/C=C(\COc1cccc2ccccc12)C(=O)NCc1cccs1)NO` [Example 2-15, (E)-N8-Hydroxy-2-((naphthalen-1-yloxy)methyl)-N1-(thiophen-2-ylmethyl)-2-octenediamide] are 0.4 µM and 8.10.
As for `COc1ccc(CCNC(=O)/C(=C/CCCCC(=O)NO)COc2cccc3ccccc23)cc1` [Example 2-16, (E)-N8-Hydroxy-N1-(4-methoxyphenethyl)-2-((naphthalen-1-yloxy)methyl)-2-octenediamide], in assay [1] (setting [3]), the half-maximal effective concentration (EC50) came out at 0.7 µM. In addition, in assay [2] (Table 3, formula (2) series), the pIC50 is 7.77.
As to `O=C(CCCC/C=C(\COc1cccc2ccccc12)C(=O)NC1CCN(C2CCCC2)CC1)NO` [Example 2-19, (E)-N1-(1-Cyclopentylpiperidin-4-yl)-N8-hydroxy-2-((naphthalen-1-yloxy)methyl)-2-octenediamide], in assay [1] (setting [3]), the EC50 stood at 0.8 µM. For the same compound, the pIC50 in assay [2] (Table 3, formula (2) series) was 7.89.
On the same counts, the results for `O=C(CCCC/C=C(\COc1cccc2ccccc12)C(=O)NC1CCN(Cc2ccccc2)C1)NO` (centres unmarked) [Example 2-20, (E)-N1-(1-Benzylpyrrolidin-3-yl)-N8-hydroxy-2-((naphthalen-1-yloxy)methyl)-2-octenediamide] are 0.9 µM and 8.15.
On to `CC(C)N1CCC(NC(=O)/C(=C/CCCCC(=O)NO)COc2cccc3ccccc23)C1` (centres unmarked) [Example 2-21, (E)-N8-Hydroxy-N1-(1-isopropylpyrrolidin-3-yl)-2-((naphthalen-1-yloxy)methyl)-2-octenediamide], for which the EC50 in assay [1] (setting [3]) worked out at 1 µM. Besides, in assay [2] (Table 3, formula (2) series), the pIC50 was 7.92.
With `O=C(CCCC/C=C(\COc1ccc2ccccc2c1)C(=O)NC1CCN(C2CCCCC2)C1)NO` (centres unmarked) [Example 2-25, (E)-N1-(1-Cyclohexylpyrrolidin-3-yl)-N8-hydroxy-2-((naphthalen-2-yloxy)methyl)-2-octenediamide], the EC50 in assay [1] (setting [3]) worked out at 0.5 µM. The pIC50 in assay [2] (Table 3, formula (2) series) is 8.00.
For the compound `O=C(CCCC/C=C(\COc1cccc2ccccc12)C(=O)NC1CCN(C2CC2)C1)NO` (centres unmarked) [Example 2-26, (E)-N1-(1-Cyclopropylpyrrolidin-3-yl)-N8-hydroxy-2-((naphthalen-1-yloxy)methyl)-2-octenediamide], the EC50 in assay [1] (setting [3]) was less than 0.2 µM. Moreover, the pIC50 in assay [2] (Table 3, formula (2) series) was 7.96.
Regarding `O=C(CCCC/C=C(\COc1cccc2ccccc12)C(=O)NC1CCN(C2CC2)CC1)NO` [Example 2-27, (E)-N1-(1-Cyclopropylpiperidin-4-yl)-N8-hydroxy-2-((naphthalen-1-yloxy)methyl)-2-octenediamide], the EC50 in assay [1] (setting [3]) is 0.32 µM. The pIC50 in assay [2] (Table 3, formula (2) series) was 7.80.
As for `CCN1CCC(NC(=O)/C(=C/CCCCC(=O)NO)COc2cccc3ccccc23)C1` (centres unmarked) [Example 2-29, (E)-N1-(1-Ethylpyrrolidin-3-yl)-N8-hydroxy-2-((naphthalen-1-yloxy)methyl)-2-octenediamide], the 50% effective concentration (EC50) in assay [1] (setting [3]) is 0.9 µM. In addition, the pIC50 in assay [2] (Table 3, formula (2) series) was 8.00.
Regarding `CC(C)N1CCC(NC(=O)/C(=C/CCCCC(=O)NO)COc2cccc3ccccc23)CC1` [Example 2-30, (E)-N8-Hydroxy-N1-(1-isopropylpiperidin-4-yl)-2-((naphthalen-1-yloxy)methyl)-2-octenediamide], the EC50 in assay [1] (setting [3]) turned out to be 0.7 µM. The pIC50 in assay [2] (Table 3, formula (2) series) is 7.82.
Consider `O=C(CCCC/C=C(/CNCCN1CCOCC1)COc1cccc2ccccc12)NO` [Example 3-1, (Z)—N-hydroxy-8-(2-morpholinoethylamino)-7-((naphthalen-1-yloxy)methyl)oct-6-enamide], for which the EC50 in assay [1] (setting [4]) was found to be 0.2 µM. The IC50 in assay [2] was 0.002 µM.
For `COCC(C)NC/C(=C/CCCCC(=O)NO)COc1cccc2ccccc12` (centres unmarked) [Example 3-2, (Z)—N-Hydroxy-8-(1-methoxypropan-2-ylamino)-7-((naphthalen-1-yloxy)methyl)oct-6-enamide], the EC50 in assay [1] (setting [4]) came out at 0.2 µM. Besides, in assay [2], the IC50 stood at 0.005 µM.
For `O=C(CCCC/C=C(/CNCCCN1CCCC1=O)COc1cccc2ccccc12)NO` [Example 3-3, (Z)—N-Hydroxy-8-(naphthalen-1-yloxy)-7-((3-(2-oxopyrrolidin-1-yl)propylamino)methyl)oct-6-enamide], in assay [1] (setting [4]), the half-maximal effective concentration (EC50) was determined as 0.5 µM. The IC50 in assay [2] is 0.003 µM.
In the case of `O=C(CCCC/C=C(/CNCCCn1ccnc1)COc1cccc2ccccc12)NO` [Example 3-4, (Z)-8-(3-(1H-Imidazol-1-yl)propylamino)-N-hydroxy-7-((naphthalen-1-yloxy)methyl)oct-6-enamide], the EC50 in assay [1] (setting [4]) is 0.7 µM. For the same compound, the IC50 in assay [2] stood at 0.003 µM.
With `CN(C)CC(C)(C)CNC/C(=C/CCCCC(=O)NO)COc1cccc2ccccc12` [Example 3-7, (Z)-8-(3-(Dimethylamino)-2,2-dimethylpropylamino)-N-hydroxy-7-((naphthalen-1-yloxy)methyl)oct-6-enamide], the EC50 in assay [1] (setting [4]) came to 1.2 µM. Moreover, the IC50 in assay [2] turned out to be 0.012 µM.
Take `O=C(CCCC/C=C(/CNCCN1CCCC1)COc1cccc2ccccc12)NO` [Example 3-8, (Z)—N-Hydroxy-8-(naphthalen-1-yloxy)-7-((2-(pyrrolidin-1-yl)ethylamino)methyl)oct-6-enamide]: the EC50 in assay [1] (setting [4]) is 0.5 µM. In addition, the IC50 in assay [2] came to 0.005 µM.
The matching figures for `COCCNC/C(=C/CCCCC(=O)NO)COc1cccc2ccccc12` [Example 3-10, (Z)—N-Hydroxy-8-(2-methoxyethylamino)-7-((naphthalen-1-yloxy)methyl)oct-6-enamide]: less than 0.2 µM and 0.006 µM.
Take `CC(C)N1CCC(NC/C(=C/CCCCC(=O)NO)COc2cccc3ccccc23)CC1` [Example 3-11, (Z)—N-Hydroxy-8-(1-isopropylpiperidin-4-ylamino)-7-((naphthalen-1-yloxy)methyl)oct-6-enamide]: in assay [1] (setting [4]), the EC50 was 1.3 µM. The IC50 in assay [2] stood at 0.012 µM.
For `O=C(CCCC/C=C(/CNCc1cccs1)COc1cccc2ccccc12)NO` [Example 3-14, (Z)—N-Hydroxy-8-(naphthalen-1-yloxy)-7-((thiophen-2-ylmethylamino)methyl)oct-6-enamide], the EC50 in assay [1] (setting [4]) was found to be 0.3 µM. Moreover, the IC50 in assay [2] was found to be 0.002 µM.

Values taken from patent US8053435B2, “Naphthalenyloxypropenyl derivatives having inhibitory activity against histone deacetylase and pharmaceutical composition comprising the same” (Korea Research Institute of Chemical Technology, priority 2006, dated 2011).
